Assay results as given in PubChem BioAssay AID1383 (University of Pittsburgh Molecular Library Screening Center, 2008).
Active and inactive are the calls of the source. How the calls were made is not given here.

Molecular target: Serine/threonine-protein kinase PLK1 (Homo sapiens) (UniProt P53350)
Assay: PLK1 kinase inhibition, dose response, selectivity assay for PKD inhibitor project, biochemical (AID 1383)
Conditions: counterscreen

Sequence of Serine/threonine-protein kinase PLK1 (Homo sapiens) (P53350 whole entry, looked up): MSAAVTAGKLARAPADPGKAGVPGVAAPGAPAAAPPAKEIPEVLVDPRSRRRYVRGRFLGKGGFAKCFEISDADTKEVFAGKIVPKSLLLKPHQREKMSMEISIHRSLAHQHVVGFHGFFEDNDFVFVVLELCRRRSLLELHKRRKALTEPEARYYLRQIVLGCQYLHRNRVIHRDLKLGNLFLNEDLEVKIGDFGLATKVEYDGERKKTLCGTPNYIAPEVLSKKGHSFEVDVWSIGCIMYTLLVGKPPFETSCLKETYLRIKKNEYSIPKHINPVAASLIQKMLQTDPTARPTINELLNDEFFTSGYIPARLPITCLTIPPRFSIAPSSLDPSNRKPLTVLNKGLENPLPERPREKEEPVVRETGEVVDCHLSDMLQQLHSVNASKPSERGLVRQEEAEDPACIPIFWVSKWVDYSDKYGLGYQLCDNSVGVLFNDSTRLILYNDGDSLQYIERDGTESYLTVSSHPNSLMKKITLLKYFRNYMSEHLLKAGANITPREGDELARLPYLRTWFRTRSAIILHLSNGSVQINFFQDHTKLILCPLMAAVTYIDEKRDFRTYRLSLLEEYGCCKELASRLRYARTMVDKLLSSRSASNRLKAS

In the case of Clc1cncc(Cl)c1N/N=C/c1ccncc1, the IC50 is reported as > 50 µM (inactive).
